Data on 13 compounds can be found in article PMC9031908 (RSC Advances, 2021).

Read-outs that look alike come from different tables or passages of the source.

Series [1] has as its system mice. Description: Apomorphine-induced climbing. The format is in vivo. The settings on record: po.
For series [2], the system named is mice. Description: Catalepsy test. It is filed as in vivo. Conditions: po.
The subject of series [3] is rats. Put plainly: Conditioned avoidance response. The settings on record: po. The format is in vivo.
Series [4] has as its system mice. Description: Weight gain after 28 days of administration. It is filed as in vivo. The settings on record: oral.
Series [5] concerns mice. Put plainly: Serum prolactin after 28 days of administration. The format is in vivo. The settings on record: oral.
Series [6] deals with mice. Description: Acute toxicity. Conditions: oral, 24 h.
For series [7], the system named is mice. Put plainly: MK-801-induced hyperactivity. Conditions: po.
Series [8] has as its target D2 receptor (Rattus norvegicus, UniProt P61169). Put plainly: biochemical. The format is binding.
Series [9] deals with T1, 5-HT1A receptor (Rattus norvegicus, UniProt P19327).
T1 sequence (P19327 1-422): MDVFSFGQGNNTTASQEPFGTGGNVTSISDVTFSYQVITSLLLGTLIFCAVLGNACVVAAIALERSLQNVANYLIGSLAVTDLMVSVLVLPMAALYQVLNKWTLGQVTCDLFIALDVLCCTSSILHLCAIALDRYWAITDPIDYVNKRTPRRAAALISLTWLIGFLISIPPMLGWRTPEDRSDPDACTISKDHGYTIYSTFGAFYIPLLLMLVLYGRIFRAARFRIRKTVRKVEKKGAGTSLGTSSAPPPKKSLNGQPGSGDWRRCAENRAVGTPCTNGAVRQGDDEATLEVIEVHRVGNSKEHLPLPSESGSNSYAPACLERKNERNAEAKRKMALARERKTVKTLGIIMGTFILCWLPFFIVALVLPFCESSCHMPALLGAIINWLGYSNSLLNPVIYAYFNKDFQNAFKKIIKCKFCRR
Put plainly: biochemical. It is filed as binding.

In series [10] the target is 5-HT2A receptor (Rattus norvegicus, UniProt P14842). Description: biochemical. The format is binding.
Chain of 5-HT2A receptor (Rattus norvegicus, UniProt P14842) (P14842 whole entry): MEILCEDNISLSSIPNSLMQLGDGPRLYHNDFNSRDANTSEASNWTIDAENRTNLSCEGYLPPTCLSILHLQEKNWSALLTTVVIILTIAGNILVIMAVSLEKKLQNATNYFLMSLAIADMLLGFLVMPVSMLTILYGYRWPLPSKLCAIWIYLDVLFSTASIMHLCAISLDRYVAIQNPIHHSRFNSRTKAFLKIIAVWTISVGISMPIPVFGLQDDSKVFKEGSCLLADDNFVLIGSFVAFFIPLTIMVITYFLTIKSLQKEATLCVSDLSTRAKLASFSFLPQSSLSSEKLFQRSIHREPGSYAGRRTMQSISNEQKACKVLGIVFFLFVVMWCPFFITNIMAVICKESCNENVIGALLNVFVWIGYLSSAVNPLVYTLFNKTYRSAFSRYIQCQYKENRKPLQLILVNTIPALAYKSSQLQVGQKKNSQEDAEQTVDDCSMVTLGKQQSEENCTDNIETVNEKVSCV
The target in series [11] is T2, 5-HT6 receptor (Homo sapiens, UniProt P50406). Description: biochemical. The format is binding.
T2 sequence (P50406 whole entry): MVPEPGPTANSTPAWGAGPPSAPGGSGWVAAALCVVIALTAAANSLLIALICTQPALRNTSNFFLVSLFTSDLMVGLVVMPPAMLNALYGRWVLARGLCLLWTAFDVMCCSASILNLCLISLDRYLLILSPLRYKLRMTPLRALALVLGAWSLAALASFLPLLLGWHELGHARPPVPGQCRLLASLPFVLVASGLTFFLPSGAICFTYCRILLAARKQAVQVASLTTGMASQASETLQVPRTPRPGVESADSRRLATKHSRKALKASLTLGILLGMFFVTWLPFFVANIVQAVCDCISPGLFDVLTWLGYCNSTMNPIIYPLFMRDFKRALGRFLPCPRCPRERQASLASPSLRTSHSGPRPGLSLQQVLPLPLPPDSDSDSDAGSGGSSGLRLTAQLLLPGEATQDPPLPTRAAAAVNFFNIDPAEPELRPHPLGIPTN
The target in the next series is H3 receptor (Rattus norvegicus, UniProt Q9QYN8). It is filed as binding.
Chain of H3 receptor (Q9QYN8 whole entry): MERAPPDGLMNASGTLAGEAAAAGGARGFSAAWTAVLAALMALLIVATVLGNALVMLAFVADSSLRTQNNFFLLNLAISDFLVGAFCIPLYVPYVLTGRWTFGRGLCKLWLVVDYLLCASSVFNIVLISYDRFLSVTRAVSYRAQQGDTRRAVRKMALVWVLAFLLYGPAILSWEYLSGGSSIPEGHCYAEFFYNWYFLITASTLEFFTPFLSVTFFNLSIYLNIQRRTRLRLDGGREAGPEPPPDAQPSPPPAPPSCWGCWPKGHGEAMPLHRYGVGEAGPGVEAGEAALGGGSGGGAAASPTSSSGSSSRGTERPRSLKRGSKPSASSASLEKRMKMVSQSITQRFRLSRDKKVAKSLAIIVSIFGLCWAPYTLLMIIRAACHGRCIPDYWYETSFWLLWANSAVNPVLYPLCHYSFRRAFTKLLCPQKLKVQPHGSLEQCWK
The target of series [12] is 5-HT2A receptor (Homo sapiens, UniProt P28223). Put plainly: 5-HT2A functional activity. The format is cell-based.
Chain of 5-HT2A receptor (Homo sapiens, UniProt P28223) (P28223 whole entry): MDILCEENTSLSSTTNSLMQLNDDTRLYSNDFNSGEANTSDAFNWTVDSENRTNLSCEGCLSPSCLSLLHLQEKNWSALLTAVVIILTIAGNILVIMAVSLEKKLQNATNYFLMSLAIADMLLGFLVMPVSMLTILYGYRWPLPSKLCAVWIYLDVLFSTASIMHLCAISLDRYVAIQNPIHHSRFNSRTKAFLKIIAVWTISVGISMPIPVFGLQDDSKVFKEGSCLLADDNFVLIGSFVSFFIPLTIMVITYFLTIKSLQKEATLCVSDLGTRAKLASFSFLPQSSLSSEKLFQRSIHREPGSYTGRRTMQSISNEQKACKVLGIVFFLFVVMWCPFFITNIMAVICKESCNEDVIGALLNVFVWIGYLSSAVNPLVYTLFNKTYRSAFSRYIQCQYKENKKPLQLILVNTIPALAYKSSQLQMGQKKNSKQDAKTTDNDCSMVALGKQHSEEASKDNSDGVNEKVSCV
The target in another series is α1 receptor. Conditions: read-out: Receptor affinity Ki ± SEM, α1; three experiments, mean ± SEM.
For series [13], the system named is rats. The settings on record: oral.
The target in series [14] is D2 receptor (Homo sapiens, UniProt P14416). Description: cell-based.
Chain of D2 receptor (Homo sapiens, UniProt P14416) (P14416 whole entry): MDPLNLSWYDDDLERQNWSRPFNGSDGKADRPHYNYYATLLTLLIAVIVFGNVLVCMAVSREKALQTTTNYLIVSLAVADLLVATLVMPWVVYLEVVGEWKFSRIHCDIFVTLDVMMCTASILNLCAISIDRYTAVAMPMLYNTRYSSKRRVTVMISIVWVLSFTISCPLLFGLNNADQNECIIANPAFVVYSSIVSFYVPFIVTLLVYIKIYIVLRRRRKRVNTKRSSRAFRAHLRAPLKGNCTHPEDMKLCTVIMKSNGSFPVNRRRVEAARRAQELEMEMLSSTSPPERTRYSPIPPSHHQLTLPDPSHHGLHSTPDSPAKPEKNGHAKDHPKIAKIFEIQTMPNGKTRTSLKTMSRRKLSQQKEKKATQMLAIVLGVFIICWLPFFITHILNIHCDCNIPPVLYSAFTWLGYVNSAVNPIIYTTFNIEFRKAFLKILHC
Series [15] has as its target T3, 5-HT1A receptor (Homo sapiens, UniProt P08908).
T3 sequence (P08908 1-422): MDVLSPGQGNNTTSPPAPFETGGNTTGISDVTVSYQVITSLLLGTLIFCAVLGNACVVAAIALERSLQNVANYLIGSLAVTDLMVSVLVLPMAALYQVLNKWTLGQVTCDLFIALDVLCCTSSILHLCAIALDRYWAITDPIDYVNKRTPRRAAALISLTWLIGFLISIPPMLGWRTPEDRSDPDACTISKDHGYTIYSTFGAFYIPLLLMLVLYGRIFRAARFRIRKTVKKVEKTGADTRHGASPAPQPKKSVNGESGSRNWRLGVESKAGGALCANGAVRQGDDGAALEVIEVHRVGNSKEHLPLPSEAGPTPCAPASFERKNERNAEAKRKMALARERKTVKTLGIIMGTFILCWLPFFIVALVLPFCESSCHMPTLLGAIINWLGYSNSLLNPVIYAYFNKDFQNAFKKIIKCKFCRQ
Description: cell-based.

Series [16] deals with T2, 5-HT6 receptor. Description: cell-based.
Another series concerns the target T4, 5-HT2C receptor (Rattus norvegicus, UniProt P08909).
T4 sequence (P08909 33-460): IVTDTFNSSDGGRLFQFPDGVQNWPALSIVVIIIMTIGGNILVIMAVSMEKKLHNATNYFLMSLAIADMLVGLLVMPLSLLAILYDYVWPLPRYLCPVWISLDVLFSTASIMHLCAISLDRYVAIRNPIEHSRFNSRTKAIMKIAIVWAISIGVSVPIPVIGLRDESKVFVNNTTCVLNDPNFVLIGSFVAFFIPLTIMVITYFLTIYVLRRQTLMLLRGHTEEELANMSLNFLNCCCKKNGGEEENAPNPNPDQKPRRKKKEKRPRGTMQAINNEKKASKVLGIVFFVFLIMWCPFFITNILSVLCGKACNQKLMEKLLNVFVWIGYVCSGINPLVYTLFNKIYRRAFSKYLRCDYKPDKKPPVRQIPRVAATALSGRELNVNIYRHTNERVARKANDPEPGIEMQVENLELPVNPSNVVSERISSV
Put plainly: biochemical.

Another series deals with H1 receptor (Cavia porcellus, UniProt P31389). Put plainly: biochemical.
Chain of H1 receptor (P31389 whole entry): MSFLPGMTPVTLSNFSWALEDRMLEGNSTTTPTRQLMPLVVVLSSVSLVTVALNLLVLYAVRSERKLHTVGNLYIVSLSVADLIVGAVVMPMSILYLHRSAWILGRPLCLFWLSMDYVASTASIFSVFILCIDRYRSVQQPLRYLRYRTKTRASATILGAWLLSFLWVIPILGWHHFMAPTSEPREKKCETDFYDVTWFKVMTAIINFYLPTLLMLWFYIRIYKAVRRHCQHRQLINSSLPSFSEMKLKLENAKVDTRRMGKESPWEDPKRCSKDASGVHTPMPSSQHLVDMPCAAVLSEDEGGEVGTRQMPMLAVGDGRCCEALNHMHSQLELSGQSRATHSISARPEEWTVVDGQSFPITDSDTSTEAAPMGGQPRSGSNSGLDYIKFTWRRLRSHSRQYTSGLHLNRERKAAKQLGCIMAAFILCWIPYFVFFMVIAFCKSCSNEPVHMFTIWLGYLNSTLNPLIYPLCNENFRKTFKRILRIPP
Another series concerns the target hH3R (Homo sapiens, UniProt Q9Y5N1). Put plainly: H3 functional activity.

Chain of D2 receptor (Rattus norvegicus, UniProt P61169) (P61169 whole entry): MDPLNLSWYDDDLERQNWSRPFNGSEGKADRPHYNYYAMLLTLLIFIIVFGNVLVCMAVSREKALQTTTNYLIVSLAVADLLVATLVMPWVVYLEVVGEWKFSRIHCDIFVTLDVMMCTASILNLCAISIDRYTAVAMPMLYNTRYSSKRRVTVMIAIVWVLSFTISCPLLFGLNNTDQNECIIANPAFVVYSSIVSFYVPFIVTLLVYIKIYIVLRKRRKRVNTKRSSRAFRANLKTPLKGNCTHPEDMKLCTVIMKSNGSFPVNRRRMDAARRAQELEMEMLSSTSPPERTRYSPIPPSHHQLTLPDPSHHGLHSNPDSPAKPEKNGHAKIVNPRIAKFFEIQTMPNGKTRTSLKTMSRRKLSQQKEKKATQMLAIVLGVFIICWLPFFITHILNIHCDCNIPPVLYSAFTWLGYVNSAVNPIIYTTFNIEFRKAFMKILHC
Chain of hH3R (Q9Y5N1 whole entry): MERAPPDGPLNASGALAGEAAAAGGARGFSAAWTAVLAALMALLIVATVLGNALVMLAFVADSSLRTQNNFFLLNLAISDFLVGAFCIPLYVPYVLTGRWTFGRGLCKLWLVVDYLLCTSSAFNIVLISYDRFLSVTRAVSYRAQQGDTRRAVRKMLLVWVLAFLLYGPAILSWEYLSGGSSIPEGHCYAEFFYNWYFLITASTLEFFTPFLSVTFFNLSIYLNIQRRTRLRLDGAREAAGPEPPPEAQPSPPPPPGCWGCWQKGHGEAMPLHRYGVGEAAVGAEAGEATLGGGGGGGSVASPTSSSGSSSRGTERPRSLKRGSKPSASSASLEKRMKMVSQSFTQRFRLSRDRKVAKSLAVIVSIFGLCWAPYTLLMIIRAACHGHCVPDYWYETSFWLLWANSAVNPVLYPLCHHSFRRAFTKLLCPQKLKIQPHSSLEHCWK

For the compound `Cc1nc2n(c(=O)c1CCN1CCC(c3noc4cc(F)ccc34)CC1)CCCC2` [Risperidone, risperidone], the “APO: apomorphine-induced climbing ED50” value in the series on mice [1] is 0.05 mg/kg. Further, the “CAT: catalepsy ED50” value came out at 0.51 mg/kg with mice [2] and 1.15 mg/kg in the series on mice [2] (listed as risperidone). The “CAR: conditioned avoidance response ED50” value in the series with rats [3] stood at 0.65 mg/kg; in the series on rats [3] (listed as risperidone), 2.1 mg/kg. The weight gain result in the series with mice [4] was “significant weight gain”. Besides, the serum prolactin levels result with mice [5] is listed as “significant increase”. In the series on mice [6], the median lethal dose (LD50) – broadly, the dose at which mortality reaches 50% – turned out to be 82.0 mg/kg. For the same compound, the “MK-801: MK-801-induced hyperactivity ED50” value with mice [7] is 0.02 mg/kg.

`COc1cc(CN2CCCCC2)ccc1OCCCN1CCN(c2cccc3sccc23)CC1` [Compound 3p]: the Ki (as a rule, a dissociation constant, usually derived from enzyme kinetics or from competition with a known ligand) on D2 receptor [8] was found to be 144 ± 15 nM; at 5-HT1A receptor [9], 229 ± 25.8 nM; at 5-HT2A receptor [10] it was 198 ± 16.9 nM; at 5-HT6 receptor [11] it was 416 ± 81.3 nM.

In the case of `Fc1cc(CN2CCCC2)ccc1OCCCN1CCN(c2cccc3sccc23)CC1` [Compound 3c], the Ki at D2 receptor [8] is 100 ± 7 nM; on 5-HT1A receptor [9], 155 ± 15.2 nM; on 5-HT2A receptor [10], 259 ± 14 nM; at 5-HT6 receptor [11], 383 ± 34.6 nM; at H3 receptor it was 92.9 ± 3.6 nM.

For the compound `Fc1cc(CN2CCCCC2)ccc1OCCCN1CCN(c2cccc3sccc23)CC1` [Compound 3l], the Ki on D2 receptor [8] turned out to be 197 ± 15.5 nM; on 5-HT1A receptor [9] it was 285 ± 15.7 nM; on 5-HT2A receptor [10], 175 ± 25.3 nM; at 5-HT6 receptor [11], 389 ± 63.2 nM; on H3 receptor, 88.4 ± 10.1 nM.

Consider `c1cc(N2CCN(CCCOc3ccc(CN4CCOCC4)cc3)CC2)c2ccsc2c1` [Compound 3w], for which the Ki turned out to be 17.5 ± 1.9 nM on D2 receptor [8]; 16.7 ± 1.8 nM on 5-HT1A receptor [9]; 336 ± 65.3 nM on 5-HT6 receptor [11]; 12.1 ± 1.5 nM at H3 receptor; 406 ± 60.8 nM at α1 receptor; 572 ± 91.5 nM at 5-HT2C receptor. The affinity at H1 receptor corresponds to a Ki of 820 ± 48.7 nM. Further, the IC50 (in general, the concentration at which inhibition is half-maximal) on 5-HT2A receptor [12] is 142 nM; against D2 receptor [14], 11.6 nM; on 5-HT1A receptor [15] it was 218 nM; at 5-HT6 receptor [16], 413 nM; at hH3R, 232 nM. The “APO: apomorphine-induced climbing ED50” value with mice [1] was 0.28 mg/kg. Moreover, in the series on mice [2], the “CAT: catalepsy ED50” value worked out at 27.5 mg/kg. For the same compound, the weight gain entry with mice [4] is listed as “negligible weight gain”. The “novelty discrimination index (NDI)” value with rats [13] (0.3 and 1.0 mg kg^−1) was “obvious increase”. The “effect on total exploration time during the acquisition trial” value in the series with rats [13] (1.0–10.0 mg kg^−1) was “no obvious effect”. The “difference in exploration times for novel and familiar objects, retention trial” value with rats [13] (low dose 0.1 mg kg^−1) is on record as “no significant difference”. The “MK-801: MK-801-induced hyperactivity ED50” value in the series on mice [7] worked out at 0.17 mg/kg.

As to `c1cc(N2CCN(CCCOc3ccc(CN4CCCC4)cc3)CC2)c2ccsc2c1` [Compound 3i], the Ki was found to be 91.1 ± 4.5 nM at D2 receptor [8]; 135 ± 10.5 nM on 5-HT1A receptor [9]; 186 ± 20.1 nM on 5-HT2A receptor [10]; 384 ± 51.3 nM at 5-HT6 receptor [11]; 53 ± 6.3 nM on H3 receptor.

In the case of `Fc1cc(OCCCN2CCN(c3cccc4sccc34)CC2)ccc1CN1CCCCC1` [Compound 3m], the Ki on D2 receptor [8] turned out to be 110 ± 8.9 nM; on 5-HT1A receptor [9] it was 213 ± 24.3 nM; at 5-HT2A receptor [10], 146 ± 11.5 nM; on 5-HT6 receptor [11] it was 365 ± 55.6 nM; on H3 receptor, 81.5 ± 6.5 nM.

As to `COc1cc(CN2CCCC2)ccc1OCCCN1CCN(c2cccc3sccc23)CC1` [Compound 3g], the Ki on D2 receptor [8] came out at 99.5 ± 8.4 nM; at 5-HT1A receptor [9] it was 149 ± 11.7 nM; on 5-HT2A receptor [10], 129 ± 15.1 nM; on 5-HT6 receptor [11] it was 462 ± 55.7 nM; at H3 receptor, 62.5 ± 5 nM.

Turning to `Clc1cc(OCCCN2CCN(c3cccc4sccc34)CC2)ccc1CN1CCCC1` [Compound 3f], the Ki at D2 receptor [8] was found to be 120 ± 15 nM; at 5-HT1A receptor [9] it was 185 ± 16.3 nM; on 5-HT2A receptor [10], 268 ± 20.2 nM; at 5-HT6 receptor [11], 376 ± 58.3 nM; on H3 receptor, 75.3 ± 8.5 nM.

Consider `O=C(CCCN1CCC(O)(c2ccc(Cl)cc2)CC1)c1ccc(F)cc1` [Haloperidol, haloperidol], for which, in the series with mice [1], the “APO: apomorphine-induced climbing ED50” value came to 0.09 mg/kg. For the same compound, the “CAT: catalepsy ED50” value in the series on mice [2] was determined as 0.51 mg/kg. In the series on mice [6], this compound yielded an LD50 of 21.0 mg/kg. For the same compound, in the series on mice [7], the “MK-801: MK-801-induced hyperactivity ED50” value turned out to be 0.11 mg/kg.

`Cc1cc(CN2CCCCC2)ccc1OCCCN1CCN(c2cccc3sccc23)CC1` [Compound 3j]: the Ki on D2 receptor [8] stood at 138 ± 30.1 nM; at 5-HT1A receptor [9], 305 ± 28.2 nM; at 5-HT2A receptor [10] it was 324 ± 27.5 nM; at 5-HT6 receptor [11] it was 385 ± 51 nM; at H3 receptor, 85 ± 9.8 nM.

Take `Fc1cc(OCCCN2CCN(c3cccc4sccc34)CC2)ccc1CN1CCCC1` [Compound 3d]: the Ki at D2 receptor [8] was 98.7 ± 6.8 nM; at 5-HT1A receptor [9], 144 ± 10.4 nM; on 5-HT2A receptor [10] it was 262 ± 17.5 nM; on 5-HT6 receptor [11], 354 ± 65.8 nM; on H3 receptor, 54.4 ± 2 nM.

For the compound `CCN(C)C(=O)Oc1cccc([C@H](C)N(C)C)c1` [rivastigmine, reference compound], the “novelty discrimination index (NDI)” value in the series with rats [13] (0.1 and 0.3 mg kg^−1) is listed as “obvious increase”. In addition, the “exploration time for novel things vs vehicle, retention trial” value in the series with rats [13] (0.1 to 3.0 mg kg^−1) was “longer exploration”.
